One data set deals with Aβ40. Description: Amyloid detection: Aβ40 in rat brain and CSF after oral dosing (Wako ELISA). Format: in vivo, Sprague Dawley rat. The settings on record: 10 mg/kg p.o. Here is the method: Male Sprague Dawley rats were acquired from Charles River UK Ltd. (Margate, UK) and housed according to UK Home Office guidelines. Drugs were made up to the appropriate concentrations in 0.5% methyl cellulose. Animals were dosed orally (2 mL/kg) by gavage at the doses outlined in Tables 1 to 4 below. At the time points post-dosing, specified in the Tables 1 to 4 below the animals were administered an i.p. injection of sodium pentobarbitone (approximately 330 mg/kg for terminal anaesthesia). Using a guillotine, the animals were decapitated and trunk blood collected into 15 ml Falcon tubes containing 100 IU heparin. Blood was vortexed followed by centrifugation at 6000 rpm, 4° C. for 5 minutes. Plasma was collected for DMPK and ELISA assays and stored at −80° C. until use. Brains were dissected out and divided along the midline, weighed and stored at −80° C. until further use. Amyloid Detection 100 ml of chilled 0.2% diethyl amine (DEA) in 50 mM NaCl (pH 10) was freshly prepared and 1 ml/25 mg brain tissue was added to each hemisphere (i.e. 40× brain volume). The brains were immediately homogenized using a Polytron PT 1200 for 1.5 minutes and samples left to incubate on ice for one hour after homogenisation. 3 ml of the homogenate was transferred to a polyallomer tube (Beckman #362333) and spun at 133000×g (55,000 rpm) for 45 min at 4° C. The supernatant was then neutralised to pH 8-8.3 by adding 1/10 volume 0.5M Tris/HCl, pH 6.8. The samples can be used fresh or snap frozen on dry-ice and stored at −80° C. until required for analysis The Wako Aβ40 ELISA kit (Code No. 294-62501) uses the monoclonal antibody BNT77, raised against epitope Aβ(11-28) and the monoclonal antibody BA27, which specifically detects the C-terminal portion of Aβ40. This kit is used for the quantitative determination of human or rat Aβ(1-40) and also N-terminally truncated Aβ40 species (Aβ(x-40)) in biological matrices such as tissue culture medium, tissue homogenate, CSF and plasma. For analysis, plasma and brain samples are diluted 1:1 with the standard diluent contained in the kit and CSF samples are diluted 1:8 with the standard diluent contained in the kit. The assay is carried out according to manufacturers instructions and samples are analysed in duplicate. Data is analysed using Microsoft Excel 2003 and statistical analysis is carried out using Genstat 9th Edition.

Data set [1] can be described thus: Plasma protein binding (PPB), rapid equilibrium dialysis. Format: in vitro ADME. The note with it: male, Sprague Dawley, rat, 37° C., 6 h dialysis. Here is the method: (§1) Method for Determination of Plasma Protein Binding (PPB) and Brain Tissue Binding (BTB) Compound Preparation • Compounds were dissolved in DMSO to give a 1 mg free base/mL solution, before further dilution to 100 μg/mL in acetonitrile (100 μL of 1 mg/mL into 900 μL acetonitrile). Matrix Preparation • On the morning of dialysis, control male Sprague Dawley rat plasma and brain, previously stored at −80° C. were thawed at room temperature. Plasma was checked for pH and if necessary adjusted to 7.4 with 1M HCl. Plasma was then centrifuged (2000 g for 10 min) and the brains diluted with 2 mL of Phosphate Buffered Saline (pH 7.4) per gram of tissue and homogenised using a mechanical homogeniser. An aliquot (10 μL) of the 100 μg/mL acetonitrile compound solution was then added to 1 mL of plasma and brain homogenate and vortex mixed to give a final compound concentration of 1 μg/mL in matrix. RED Plate Preparation • The Rapid Equilibrium Dialysis (RED) plate (Thermo Scientific) was prepared in accordance with the manufacturers guidelines i.e. the base plate was soaked in 20% (v/v) ethanol for 10 min and then rinsed twice with deionised water before being allowed to dry. The base plate was then filled with the appropriate number of disposable inserts (n=3 per compound) (Thermo Scientific) and matrix containing 1 μg/mL compound added into the matrix chamber of the inserts (200 μL) and an aliquot (350 μL) of PBS added to the buffer chamber. The plate was then covered with an adhesive and incubated in air at 37° C. for 6 h with 130 rpm agitation. Sampling • Following the 6 h incubation, the seal was removed and an aliquot (50 μL) taken from the PBS chambers and dispensed into Micronics tubes. Also, an aliquot (50 μL) was removed from the matrix chambers and placed into separate Micronics tubes. Plasma and brain was then matrix matched with 50 μL of drug-free PBS and the PBS samples with 50 μL of the corresponding drug-free matrix, to give equal final compositions and volumes […]. Sample Analysis • Samples were vortex mixed and an aliquot (300 μL) of acetonitrile containing 0.1% formic acid and 100 ng/mL of an appropriate internal standard added. Samples were then mixed and centrifuged (2000 g for 15 min) and an aliquot of the supernatant (100 μL) removed into a 96-deep well plate and diluted with an equal volume of water ready for analysis by LC-MS/MS. • The following data was obtained for the following compounds in the above assay (Table 5).

Data set [2] is described as follows: Brain tissue binding (BTB), rapid equilibrium dialysis. It is filed as in vitro ADME, Sprague Dawley rat. The settings on record: 1 μg/mL in rat brain homogenate, 37° C., 6 h dialysis, mean of n = 3; for fraction unbound at 6 h, 1 μg/mL: male, Sprague Dawley, pH 7.4, read-out: Rat Brain fu. Here is the method: as §1
A short description of data set [3]: Human liver microsomal stability assay. The note with it: 0.1 μmol/L compound, 30 min, 37° C., NADPH generating system. Format: in vitro ADME. The protocol: Human Liver Microsomal Stability Assay The compound was dissolved in DMSO to prepare 1 mmol/L DMSO solution. The DMSO solution was diluted with distilled water to prepare 1 μmol/L compound dosing solution (DMSO conc.: 0.1%). 105 μL of reaction buffer (1 mol/L phosphate buffer (pH 7.4)/1 mmol/L EDTA (pH 7.4)/distilled water=1/1/5, v/v/v), 15 μL of 1 μmol/L compound dosing solution, and 15 μL of rat or human liver microsomes (5 mg/mL) were mixed, and preincubated for 5 min at 37° C. Metabolic reaction was initiated by adding 15 μL of NADPH generating system (3.3 mmol/L β-NADPH+, 80 mmol/L glucose 6-phosphate, 1 unit/mL glucose 6-phosphate dehydrogenase, 60 mmol/L MgCl2). For the control sample, NADPH generating system was replaced with 60 mmol/L MgCl2. The 150 μL of reaction mixture (final compound conc.: 0.1 μmol/L, final DMSO conc.: 0.01%) was incubated for 30 min at 37° C., and the reaction was terminated by adding 150 μL of methanol/acetonitrile solution containing an appropriate internal standard compound. The sample was vortexed and centrifuged, and obtained supernatant was subject to LC/MS analysis.

The mark [4] stands for this setting: pH 7.4, 1 μg/mL in rat plasma, mean of n = 3, read-out: Rat PPB (%) (converted).
Where [5] appears, read: pH 7.4, fraction unbound, 1 μg/mL in rat plasma, mean of n = 3, read-out: Rat Plasma fu.

Here are results for 3 compounds from patent US9175013B2, “Fused aminodihydrothiazine derivatives” (Eisai R&D Management Co., Ltd., priority 2011, dated 2015).

In the case of `COc1cnc(C(=O)Nc2ccc(F)c([C@]34CO[C@H](CF)[C@H]3CSC(N)=N4)c2)cn1` [Example 2, N-(3-((4aS,5S,7aS)-2-amino-5-(fluoromethyl)-4a,5,7,7a-tetrahydro-4H-furo[3,4-d][1,3]thiazin-7a-yl)-4-fluorophenyl)-5-methoxypyrazine-2-carboxamide], the “reduction of Aβ40 in the CSF” value in the data set with Aβ40 (4 hours) is 85%; with Aβ40 (6 hours) it was 69%. The figures for the “reduction of Aβ40 in the brain” value with Aβ40 (4 hours) and in the data set on Aβ40 (6 hours) were 63% and 65%, respectively. Further, the fraction unbound at 6 h, 1 μg/mL was 0.251 in data set [1] (setting [4]), 0.252 in data set [1] (setting [5]) and 0.066 in data set [2]. Moreover, the “Rat BTB (%)” value in data set [2] came out at 93.4%. Further, the “HLM stability: percentage of parent remaining upon 30 minute incubation with human liver microsomes” value in data set [3] stood at 82.0%.
On to `COc1cnc(C(=O)Nc2ccc(F)c([C@]34CO[C@H](C(F)F)[C@H]3CSC(N)=N4)c2)cn1` [Example 3, N-(3-((4aS,5S,7aS)-2-amino-5-(difluoromethyl)-4a,5,7,7a-tetrahydro-4H-furo[3,4-d][1,3]thiazin-7a-yl)-4-fluorophenyl)-5-methoxypyrazine-2-carboxamide], for which the “reduction of Aβ40 in the CSF” value in the data set with Aβ40 (4 hours) was found to be 75%; with Aβ40 (6 hours), 71%. Moreover, the “reduction of Aβ40 in the brain” value with Aβ40 (4 hours) is listed as 58%; with Aβ40 (6 hours) it was 61%. The fraction unbound at 6 h, 1 μg/mL in data set [1] (setting [4]) is 0.143; in data set [1] (setting [5]), 0.143; in data set [2], 0.035. The “Rat BTB (%)” value in data set [2] turned out to be 96.5%. In data set [3], the “HLM stability: percentage of parent remaining upon 30 minute incubation with human liver microsomes” value is given as 73.3%.
With `COc1cnc(C(=O)Nc2cc(F)c(F)c([C@]34CO[C@H](CF)[C@H]3CSC(N)=N4)c2)cn1` [Example 4, N-(3-((4aS,5S,7aS)-2-amino-5-(fluoromethyl)-4a,5,7,7a-tetrahydro-4H-furo[3,4-d][1,3]thiazin-7a-yl)-4,5-difluorophenyl)-5-methoxypyrazine-2-carboxamide], the “reduction of Aβ40 in the CSF” value in the data set on Aβ40 (4 hours) turned out to be 67%; with Aβ40 (6 hours) it was 63%. Further, the “reduction of Aβ40 in the brain” value in the data set on Aβ40 (4 hours) turned out to be 51%; in the data set with Aβ40 (6 hours) it was 42%. The values for the fraction unbound at 6 h, 1 μg/mL in data set [1] (setting [4]), in data set [1] (setting [5]) and in data set [2] were 0.13, 0.13 and 0.021, respectively. For the same compound, the “Rat BTB (%)” value in data set [2] came out at 97.9%. Besides, in data set [3], the “HLM stability: percentage of parent remaining upon 30 minute incubation with human liver microsomes” value was 78.6%.
